# Assay results taken from publication PMC9343461, “Molecular and in vivo studies of a glutamate-class prolyl-endopeptidase for coeliac disease therapy” (Nature Communications, 2022).
# Where two headings read alike, the source gives them in different places. Square brackets hold non-standard residues; d marks the D form. Peptide text beside a SMILES is read from it. * marks the point of attachment. Sta = CC(C)C[C@H](N)[C@@H](O)CC(=O)O; Isovaleryl = CC(C)CC(=O)*
# T1: mature neprosin (catalytic domain, S129-Q380) with C-terminal His6 tag (Nepenthes x ventrata, UniProt C0HLV2 129-380, N-linked glycans at N145 and N152)
# T1 construct: neprosin from Nepenthes x ventrata, UniProt C0HLV2, catalytic domain S129-Q380 released by cleavage at P128-S129; C-terminal purification tag, numbered A401-I402-A403 + H404-H409; written as a part because it lies in the active-site cleft of a symmetry mate; also called neprosin CD; mature enzyme; source: human Expi293F cells; pro-neprosin purified (Ni-NTA), autolysis at pH 2.5, then SEC; in the …
# T1 sequence: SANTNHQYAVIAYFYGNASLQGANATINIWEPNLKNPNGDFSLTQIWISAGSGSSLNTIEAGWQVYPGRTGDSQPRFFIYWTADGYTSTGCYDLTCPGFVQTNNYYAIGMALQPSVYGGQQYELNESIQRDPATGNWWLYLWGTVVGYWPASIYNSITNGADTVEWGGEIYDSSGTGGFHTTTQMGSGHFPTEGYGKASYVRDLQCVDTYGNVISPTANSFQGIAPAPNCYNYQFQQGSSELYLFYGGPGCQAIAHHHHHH
# Key:
# [1] = molecular target: T2, neprosin (mature catalytic domain, recombinant) (Nepenthes ventricosa x Nepenthes alata, UniProt C0HLV2); experiment: fluorogenic peptide cleavage (FS6-QPQL), inhibition curve; format: biochemical
# T2 construct: Mature catalytic domain S129-Q380 from autolysis of pro-neprosin at P128-S129 (pro-domain R25-P128 removed); C-terminal Ala-Ile-Ala plus His6 tag kept; expressed in human Expi293F cells; glycosylated at N145 and N152; monomer
# [2] = molecular target: T1, mature neprosin (catalytic domain, …); experiment: crystal structure; orthorhombic crystals of pro-neprosin (native and Lu-Xo4 derivative), polypeptide cleaved at P128-S129; protein in 20 mM Tris-HCl pH 7.5, 150 mM NaCl; reservoir 0.1 M sodium acetate pH 4.0, 22% PEG 6000, 10% isopropanol, 20 °C; settings: both partners purified
molecule,measurement,setting,value
"O=[N+]([O-])c1ccc(OCC2CO2)cc1 (stereo not drawn) [EPNP, 2-[(4-nitrophenoxy)methyl]oxirane]",IC50,[1],480 µM
CC(C)CC(=O)N[C@H](C(=O)N[C@H](C(=O)N[C@@H](CC(C)C)[C@@H](O)CC(=O)N[C@@H](C)C(=O)N[C@@H](CC(C)C)[C@@H](O)CC(=O)O)C(C)C)C(C)C [pepstatin A] (Isovaleryl-VV[Sta]A[Sta]-OH),IC50,"[1]; 50 nM neprosin, 10 μM FS6-QPQL, 100 mM glycine pH 3.0, 37 °C, pre-incubated >1 h (pre-incubation stated for the inhibitor screen)",140 µM
"neprosin pro-domain (PD, R25-P128) (domain or fragment, Nepenthes x ventrata, UniProt C0HLV2 25-128, looked up, neprosin from Nepenthes x ventrata, UniProt C0HLV2, N-terminal pro-domain R25-P128: globular part A29-G112 and linker L113-P128; Defined in the map from A29 onwards; Y77-N86 and N122 onwards are disordered; also called cleaved PD; source: human Expi293F cells; pro-neprosin purified (Ni-NTA, SEC), found cleaved at P128-S129 in the crystals) RSIQARLANKPKGTIKTIKGDDGEVVDCVDIYKQPAFDHPLLKNHTLQMQPSSYASKVGEYNKLEQPWHKNGECPKGSIPIRRQVITGLPVVKKQFPNLKFAPP",binding result,[2],binds
